Test results from US6482830B1 (SuperGen, Inc., priority 2002, dated 2002).
Where two headings read alike, the source gives them in different places.

How the values were obtained:
human tumor xenografts = conditions: cited from earlier work
[1] = system: human colon cancer xenografts; conditions: in vivo; cited from earlier work
[2] = cited from earlier work
DNA topoisomerase I = biological target: T1, DNA topoisomerase I (Homo sapiens, UniProt P11387); conditions: by stabilizing the cleavable complex; cited from earlier work
T1 sequence (P11387 1-765): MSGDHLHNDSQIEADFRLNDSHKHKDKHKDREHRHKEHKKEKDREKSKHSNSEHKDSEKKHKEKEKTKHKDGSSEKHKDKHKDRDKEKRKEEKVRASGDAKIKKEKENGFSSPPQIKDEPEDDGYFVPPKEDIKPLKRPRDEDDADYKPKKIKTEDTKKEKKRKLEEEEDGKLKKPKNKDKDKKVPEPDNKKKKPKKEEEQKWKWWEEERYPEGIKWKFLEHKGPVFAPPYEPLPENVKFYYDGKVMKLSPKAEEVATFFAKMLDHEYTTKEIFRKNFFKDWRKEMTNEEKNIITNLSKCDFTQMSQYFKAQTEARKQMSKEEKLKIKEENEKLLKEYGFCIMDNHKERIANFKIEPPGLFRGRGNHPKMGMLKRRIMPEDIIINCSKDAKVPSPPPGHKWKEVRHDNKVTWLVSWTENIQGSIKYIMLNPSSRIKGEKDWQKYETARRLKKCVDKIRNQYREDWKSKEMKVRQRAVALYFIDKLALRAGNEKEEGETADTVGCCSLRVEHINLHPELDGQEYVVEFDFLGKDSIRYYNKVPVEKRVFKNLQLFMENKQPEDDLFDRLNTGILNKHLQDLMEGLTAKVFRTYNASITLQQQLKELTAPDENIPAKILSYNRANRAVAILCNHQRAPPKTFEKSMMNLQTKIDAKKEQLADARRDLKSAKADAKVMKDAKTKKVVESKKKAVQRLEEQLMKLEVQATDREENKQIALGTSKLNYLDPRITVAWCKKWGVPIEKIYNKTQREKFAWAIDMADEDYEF

[3] = for Hygroscopicity: from moisture sorption 5 to 95% RH; for Weight % chg: 25 deg C
Description: Moisture sorption/desorption data were collected on a VTI SGA-100 moisture balance system. […] The samples were not dried prior to analysis. Equilibrium criteria used for analysis were less than 0.0100 weight % change in 5 minutes with a maximum equilibration time of 3 hours if the weight criterion was not met. Data were not corrected for the initial moisture content of the samples.

[4] = ground in an amalgamator for 10 minutes
[5] = closed vial, 31 days, ambient conditions
[6] = Description: Dehydration/desolvation studies were conducted by placing a sample under continuous vacuum at room temperature for 14 days. An XRPD pattern was obtained on the remaining solid and compared to the starting material.
[7] = cited from earlier work; remark: listed apart in the source

## CC[C@@]1(O)C(=O)OCc2c1cc1n(c2=O)Cc2cc3c([N+](=O)[O-])cccc3nc2-1 [9-nitrocamptothecin, 9-nitro-20(S)-camptothecin]
Human tumor xenografts; immunodeficient nude mice
  Growth of human tumor xenografts: inhibited the growth
Human tumor xenografts; mouse, in vivo
  Activity against human tumor xenograft models: high activity
Human tumor xenografts; xenografts in nude mice
  Regression of established human tumors: induced regression

## CC[C@@]1(O)C(=O)OCc2c1cc1n(c2=O)Cc2cc3cc4c(cc3nc2-1)OCO4 [10,11,MD, 10,11-methylendioxy-20(S)-camptothecin]
[1]
  Anticancer activity against human colon cancer xenografts: high anticancer activity

## CC[C@@]1(O)C(=O)OCc2c1cc1n(c2=O)Cc2cc3ccccc3nc2-1 [Camptothecin]
[2]
  Water solubility: poorly water soluble
DNA topoisomerase I
  Inhibition of DNA topoisomerase I: inhibit DNA topoisomerase I

## CC[C@@]1(O)C(=O)OCc2c1cc1n(c2=O)Cc2cc3c(N)cccc3nc2-1 [Form 9AC, 9-Amino-20(S)-Camptothecin]
[1]
  Anticancer activity against human colon cancer xenografts: high anticancer activity

## CC[C@@]1(O)C(=O)OCc2c1cc1n(c2=O)Cc2cc3c([N+](=O)[O-])cccc3nc2-1 [Form A, 9-nitro-20(S)-camptothecin]
[3]
  Hygroscopicity: not hygroscopic
[4]
  Change of crystallinity on grinding (XRPD): losing crystallinity after grinding

## CC[C@@]1(O)C(=O)OCc2c1cc1n(c2=O)Cc2cc3c([N+](=O)[O-])cccc3nc2-1 [Form B, 9-nitro-20(S)-camptothecin]
[3]; 5 to 95% RH
  Total weight gained in the region from 5 to 95% RH: 2.21%
[3]; desorption, about 5% RH
  Weight % chg: −1.0408%
[3]; desorption, about 15% RH
  Weight % chg: −0.5118%
[3]; desorption, about 25% RH
  Weight % chg: −0.1151%
[3]; desorption, about 35% RH
  Weight % chg: 0.1861%
[3]; desorption, about 45% RH
  Weight % chg: 0.4359%
[3]; desorption, about 55% RH
  Weight % chg: 0.6637%
[3]; desorption, about 65% RH
  Weight % chg: 0.8473%
[3]; desorption, about 75% RH
  Weight % chg: 1.0310%
[3]; desorption, about 85% RH
  Weight % chg: 1.1706%
[3]; equilibration at 5% RH
  Water lost upon equilibration at 5% RH: 0.98%
[3]
  Hygroscopicity: relatively hygroscopic
[3]; sorption, about 5% RH
  Weight % chg: −0.9820%
[3]; sorption, about 15% RH
  Weight % chg: −0.4898%
[3]; sorption, about 25% RH
  Weight % chg: −0.1151%
[3]; sorption, about 35% RH
  Weight % chg: 0.1788%
[3]; sorption, about 45% RH
  Weight % chg: 0.4286%
[3]; sorption, about 55% RH
  Weight % chg: 0.6416%
[3]; sorption, about 65% RH
  Weight % chg: 0.8314%
[3]; sorption, about 75% RH
  Weight % chg: 0.9869%
[3]; sorption, about 85% RH
  Weight % chg: 1.1118%
[3]; sorption, about 95% RH
  Weight % chg: 1.2293%
[3]; start, elapsed time 0.0 min
  Weight % chg: 0.0000%
[5]
  Stability of the crystalline polymorph on storage (XRPD pattern): relatively stable

## CC[C@@]1(O)C(=O)OCc2c1cc1n(c2=O)Cc2cc3c([N+](=O)[O-])cccc3nc2-1 [Form C, 9-nitro-20(S)-camptothecin]
[6]
  Change of form on desolvation under vacuum: becomes amorphous

## CC[C@@](O)(C(=O)[O-])c1cc2n(c(=O)c1CO)Cc1cc3ccccc3nc1-2.[Na+] [Sodium camptothecin]
[7]; administered intravenously
  Side effects in clinical trials: myelosuppression and hemorrhagic cystitis
[7]; solubilized by sodium hydroxide in water, early 1970's trials
  Antineoplastic activity in clinical trials: found to have antineoplastic activity
